According to ChEMBL document CHEMBL5653615 (J Biol Chem, 2013):

Columns and labels:
[1] = biological target: T1, Serine/threonine-protein kinase NLK (Homo sapiens) (UniProt Q9UBE8); test: Inhibition of human NLK at 500 nM by HotSpot assay relative to control
T1 sequence (whole entry): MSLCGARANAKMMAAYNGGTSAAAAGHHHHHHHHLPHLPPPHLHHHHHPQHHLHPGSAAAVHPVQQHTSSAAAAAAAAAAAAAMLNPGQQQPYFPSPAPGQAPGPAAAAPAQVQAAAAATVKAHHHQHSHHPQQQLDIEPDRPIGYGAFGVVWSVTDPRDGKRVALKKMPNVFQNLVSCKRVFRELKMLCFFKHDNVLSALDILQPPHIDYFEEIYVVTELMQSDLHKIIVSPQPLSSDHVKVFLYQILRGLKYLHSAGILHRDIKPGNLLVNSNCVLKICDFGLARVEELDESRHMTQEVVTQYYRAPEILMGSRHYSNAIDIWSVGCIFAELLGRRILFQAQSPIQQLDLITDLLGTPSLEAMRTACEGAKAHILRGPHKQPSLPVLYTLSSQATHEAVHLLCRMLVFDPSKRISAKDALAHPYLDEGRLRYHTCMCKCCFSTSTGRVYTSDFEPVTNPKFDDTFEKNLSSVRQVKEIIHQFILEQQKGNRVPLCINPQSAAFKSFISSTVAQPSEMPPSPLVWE

[2] = biological target: T2, Serine/threonine-protein kinase haspin (Homo sapiens) (UniProt Q8TF76); test: Inhibition of human Haspin at 500 nM by HotSpot assay relative to control
T2 sequence (whole entry): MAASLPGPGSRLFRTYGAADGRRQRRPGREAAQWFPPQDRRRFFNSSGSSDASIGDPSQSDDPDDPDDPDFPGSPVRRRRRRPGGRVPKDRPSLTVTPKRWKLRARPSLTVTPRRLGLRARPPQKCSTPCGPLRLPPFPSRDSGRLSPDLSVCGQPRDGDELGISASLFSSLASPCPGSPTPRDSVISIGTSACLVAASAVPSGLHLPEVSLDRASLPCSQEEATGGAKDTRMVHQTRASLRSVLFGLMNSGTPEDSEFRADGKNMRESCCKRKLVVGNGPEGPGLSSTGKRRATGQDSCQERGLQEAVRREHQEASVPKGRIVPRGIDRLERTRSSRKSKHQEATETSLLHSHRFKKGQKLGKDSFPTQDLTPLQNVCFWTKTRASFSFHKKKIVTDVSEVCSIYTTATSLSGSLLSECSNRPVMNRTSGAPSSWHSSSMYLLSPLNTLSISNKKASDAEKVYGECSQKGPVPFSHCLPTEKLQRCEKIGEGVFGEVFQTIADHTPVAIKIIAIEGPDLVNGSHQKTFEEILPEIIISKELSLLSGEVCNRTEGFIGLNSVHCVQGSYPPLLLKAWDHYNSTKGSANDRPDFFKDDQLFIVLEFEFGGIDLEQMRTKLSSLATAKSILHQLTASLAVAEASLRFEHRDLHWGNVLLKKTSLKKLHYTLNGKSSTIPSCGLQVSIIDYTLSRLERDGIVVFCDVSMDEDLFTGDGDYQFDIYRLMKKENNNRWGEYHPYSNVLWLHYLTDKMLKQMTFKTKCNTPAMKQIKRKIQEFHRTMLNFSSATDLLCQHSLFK

[3] = biological target: Fibroblast growth factor receptor 3 (Homo sapiens) (UniProt P22607); test: Inhibition of human FGFR3 at 500 nM by HotSpot assay relative to control
Fibroblast growth factor receptor 3 (Homo sapiens), sequence (P22607 23-806 limits assumed): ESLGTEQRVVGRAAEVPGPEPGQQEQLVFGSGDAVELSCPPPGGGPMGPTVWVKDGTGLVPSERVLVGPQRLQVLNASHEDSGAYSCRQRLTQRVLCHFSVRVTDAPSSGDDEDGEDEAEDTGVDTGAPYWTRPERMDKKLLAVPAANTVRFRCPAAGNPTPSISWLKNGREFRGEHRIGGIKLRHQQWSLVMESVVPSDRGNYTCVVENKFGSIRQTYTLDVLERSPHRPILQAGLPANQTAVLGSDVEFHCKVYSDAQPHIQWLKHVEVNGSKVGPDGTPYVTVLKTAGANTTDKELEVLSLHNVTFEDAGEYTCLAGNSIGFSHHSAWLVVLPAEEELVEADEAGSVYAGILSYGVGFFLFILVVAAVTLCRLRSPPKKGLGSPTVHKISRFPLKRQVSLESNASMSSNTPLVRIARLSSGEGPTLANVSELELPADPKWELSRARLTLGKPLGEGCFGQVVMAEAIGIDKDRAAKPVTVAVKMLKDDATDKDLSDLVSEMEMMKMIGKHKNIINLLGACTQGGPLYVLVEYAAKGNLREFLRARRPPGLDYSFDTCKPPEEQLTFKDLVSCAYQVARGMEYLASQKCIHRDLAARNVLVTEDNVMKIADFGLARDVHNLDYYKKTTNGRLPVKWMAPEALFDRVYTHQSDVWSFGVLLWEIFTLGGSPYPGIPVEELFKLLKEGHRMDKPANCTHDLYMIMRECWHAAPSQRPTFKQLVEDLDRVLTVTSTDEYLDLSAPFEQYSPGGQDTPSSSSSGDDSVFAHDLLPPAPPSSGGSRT

[4] = biological target: G protein-coupled receptor kinase 6 (Homo sapiens) (UniProt P43250); test: Inhibition of human GRK6 at 500 nM by HotSpot assay relative to control
G protein-coupled receptor kinase 6 (Homo sapiens), sequence (P43250 whole entry, looked up): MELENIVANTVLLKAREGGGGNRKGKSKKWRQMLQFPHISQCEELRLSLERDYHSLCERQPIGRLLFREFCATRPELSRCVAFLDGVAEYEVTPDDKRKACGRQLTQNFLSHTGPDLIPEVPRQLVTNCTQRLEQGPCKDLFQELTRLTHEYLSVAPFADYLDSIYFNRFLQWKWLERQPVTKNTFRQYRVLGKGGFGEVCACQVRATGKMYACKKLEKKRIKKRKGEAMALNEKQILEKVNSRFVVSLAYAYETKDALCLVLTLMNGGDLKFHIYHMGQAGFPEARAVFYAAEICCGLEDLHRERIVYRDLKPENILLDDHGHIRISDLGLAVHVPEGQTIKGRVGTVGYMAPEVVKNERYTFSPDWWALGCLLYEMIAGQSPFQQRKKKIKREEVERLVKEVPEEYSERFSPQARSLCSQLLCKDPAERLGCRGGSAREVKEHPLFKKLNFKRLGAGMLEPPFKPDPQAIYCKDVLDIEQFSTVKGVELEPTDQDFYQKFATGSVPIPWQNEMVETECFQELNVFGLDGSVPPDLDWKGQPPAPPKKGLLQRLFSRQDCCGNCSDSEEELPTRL

[5] = biological target: T3, Tyrosine-protein kinase ZAP-70 (Homo sapiens) (UniProt P43403); test: Inhibition of human ZAP70 at 500 nM by HotSpot assay relative to control
T3 sequence (whole entry): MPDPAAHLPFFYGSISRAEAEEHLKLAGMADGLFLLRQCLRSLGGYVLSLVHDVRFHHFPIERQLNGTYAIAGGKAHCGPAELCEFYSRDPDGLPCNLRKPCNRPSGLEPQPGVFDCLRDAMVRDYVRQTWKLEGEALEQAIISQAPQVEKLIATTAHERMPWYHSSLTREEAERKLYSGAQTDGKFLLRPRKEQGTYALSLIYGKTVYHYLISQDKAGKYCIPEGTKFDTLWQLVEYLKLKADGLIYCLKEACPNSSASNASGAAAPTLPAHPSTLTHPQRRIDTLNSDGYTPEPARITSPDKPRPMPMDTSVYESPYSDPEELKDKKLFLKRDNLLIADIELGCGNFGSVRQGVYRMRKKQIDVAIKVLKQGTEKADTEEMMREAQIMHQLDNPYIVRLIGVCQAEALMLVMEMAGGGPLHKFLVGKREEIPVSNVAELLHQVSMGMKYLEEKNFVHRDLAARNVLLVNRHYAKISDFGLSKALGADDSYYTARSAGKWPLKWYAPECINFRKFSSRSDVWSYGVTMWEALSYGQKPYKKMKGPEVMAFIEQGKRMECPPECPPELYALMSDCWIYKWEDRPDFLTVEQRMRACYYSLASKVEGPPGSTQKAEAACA

[6] = biological target: Protein kinase C delta type (Homo sapiens) (UniProt Q05655); test: Inhibition of human PKCd at 500 nM by HotSpot assay relative to control
Protein kinase C delta type (Homo sapiens), sequence (Q05655 whole entry, looked up): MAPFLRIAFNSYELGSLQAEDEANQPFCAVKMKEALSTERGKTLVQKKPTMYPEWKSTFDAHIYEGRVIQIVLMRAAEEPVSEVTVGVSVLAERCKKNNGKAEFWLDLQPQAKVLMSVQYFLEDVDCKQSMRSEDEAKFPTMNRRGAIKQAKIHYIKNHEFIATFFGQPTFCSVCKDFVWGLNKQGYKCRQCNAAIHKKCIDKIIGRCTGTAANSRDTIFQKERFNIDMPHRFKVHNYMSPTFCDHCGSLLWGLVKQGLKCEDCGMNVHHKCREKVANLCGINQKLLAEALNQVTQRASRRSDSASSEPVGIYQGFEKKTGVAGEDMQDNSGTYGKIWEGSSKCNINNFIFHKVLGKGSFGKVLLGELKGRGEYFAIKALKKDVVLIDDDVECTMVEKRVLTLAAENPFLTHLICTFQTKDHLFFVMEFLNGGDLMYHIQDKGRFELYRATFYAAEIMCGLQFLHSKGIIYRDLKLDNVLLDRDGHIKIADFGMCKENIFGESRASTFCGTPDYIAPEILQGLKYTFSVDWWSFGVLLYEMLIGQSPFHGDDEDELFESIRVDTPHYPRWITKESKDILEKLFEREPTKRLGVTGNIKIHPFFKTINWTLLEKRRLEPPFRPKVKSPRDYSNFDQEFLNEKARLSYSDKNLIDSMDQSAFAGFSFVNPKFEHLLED

[7] = biological target: Mitogen-activated protein kinase 11 (Homo sapiens) (UniProt Q15759); test: Inhibition of human MAPK11 at 500 nM by HotSpot assay relative to control
[8] = organism: Homo sapiens; test: Inhibition of human CDK2/cyclin A at 500 nM by HotSpot assay relative to control
[9] = biological target: Dual specificity protein kinase CLK3 (Homo sapiens) (UniProt P49761); test: Inhibition of human CLK3 at 500 nM by HotSpot assay relative to control
Dual specificity protein kinase CLK3 (Homo sapiens), sequence (P49761 whole entry, looked up): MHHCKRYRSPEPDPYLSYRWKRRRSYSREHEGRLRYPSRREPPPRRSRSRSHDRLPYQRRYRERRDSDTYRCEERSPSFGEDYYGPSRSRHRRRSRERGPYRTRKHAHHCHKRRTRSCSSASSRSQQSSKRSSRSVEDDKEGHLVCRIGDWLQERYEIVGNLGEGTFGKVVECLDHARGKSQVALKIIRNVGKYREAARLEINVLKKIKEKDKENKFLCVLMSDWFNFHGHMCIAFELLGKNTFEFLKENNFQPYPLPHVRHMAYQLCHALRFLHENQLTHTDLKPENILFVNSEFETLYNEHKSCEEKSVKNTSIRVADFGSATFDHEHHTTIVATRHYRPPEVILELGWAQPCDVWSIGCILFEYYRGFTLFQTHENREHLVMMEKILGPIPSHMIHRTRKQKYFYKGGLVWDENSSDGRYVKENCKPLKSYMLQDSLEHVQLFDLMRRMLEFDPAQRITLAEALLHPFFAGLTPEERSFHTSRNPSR

[10] = biological target: Tyrosine-protein kinase receptor UFO (Homo sapiens) (UniProt P30530); test: Inhibition of human AXL at 500 nM by HotSpot assay relative to control
[11] = biological target: Dual specificity protein kinase CLK4 (Homo sapiens) (UniProt Q9HAZ1); test: Inhibition of human CLK4 at 500 nM by HotSpot assay relative to control
Dual specificity protein kinase CLK4 (Homo sapiens), sequence (Q9HAZ1 whole entry, looked up): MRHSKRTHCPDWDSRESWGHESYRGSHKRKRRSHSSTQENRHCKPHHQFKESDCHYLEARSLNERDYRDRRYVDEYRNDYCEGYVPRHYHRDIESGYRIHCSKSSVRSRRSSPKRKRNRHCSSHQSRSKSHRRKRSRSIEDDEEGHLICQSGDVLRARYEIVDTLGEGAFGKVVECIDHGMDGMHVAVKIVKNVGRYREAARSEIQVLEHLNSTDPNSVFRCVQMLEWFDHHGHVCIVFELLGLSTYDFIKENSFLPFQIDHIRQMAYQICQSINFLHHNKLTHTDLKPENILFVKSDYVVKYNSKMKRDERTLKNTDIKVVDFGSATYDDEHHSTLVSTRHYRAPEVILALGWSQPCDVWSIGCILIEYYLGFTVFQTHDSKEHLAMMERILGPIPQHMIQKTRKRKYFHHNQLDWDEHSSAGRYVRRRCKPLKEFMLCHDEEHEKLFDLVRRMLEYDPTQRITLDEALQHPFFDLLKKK

[12] = biological target: Serine/threonine-protein kinase MRCK alpha (Homo sapiens) (UniProt Q5VT25); test: Inhibition of human CDC42BPA at 500 nM by HotSpot assay relative to control
Serine/threonine-protein kinase MRCK alpha (Homo sapiens), sequence (Q5VT25 whole entry): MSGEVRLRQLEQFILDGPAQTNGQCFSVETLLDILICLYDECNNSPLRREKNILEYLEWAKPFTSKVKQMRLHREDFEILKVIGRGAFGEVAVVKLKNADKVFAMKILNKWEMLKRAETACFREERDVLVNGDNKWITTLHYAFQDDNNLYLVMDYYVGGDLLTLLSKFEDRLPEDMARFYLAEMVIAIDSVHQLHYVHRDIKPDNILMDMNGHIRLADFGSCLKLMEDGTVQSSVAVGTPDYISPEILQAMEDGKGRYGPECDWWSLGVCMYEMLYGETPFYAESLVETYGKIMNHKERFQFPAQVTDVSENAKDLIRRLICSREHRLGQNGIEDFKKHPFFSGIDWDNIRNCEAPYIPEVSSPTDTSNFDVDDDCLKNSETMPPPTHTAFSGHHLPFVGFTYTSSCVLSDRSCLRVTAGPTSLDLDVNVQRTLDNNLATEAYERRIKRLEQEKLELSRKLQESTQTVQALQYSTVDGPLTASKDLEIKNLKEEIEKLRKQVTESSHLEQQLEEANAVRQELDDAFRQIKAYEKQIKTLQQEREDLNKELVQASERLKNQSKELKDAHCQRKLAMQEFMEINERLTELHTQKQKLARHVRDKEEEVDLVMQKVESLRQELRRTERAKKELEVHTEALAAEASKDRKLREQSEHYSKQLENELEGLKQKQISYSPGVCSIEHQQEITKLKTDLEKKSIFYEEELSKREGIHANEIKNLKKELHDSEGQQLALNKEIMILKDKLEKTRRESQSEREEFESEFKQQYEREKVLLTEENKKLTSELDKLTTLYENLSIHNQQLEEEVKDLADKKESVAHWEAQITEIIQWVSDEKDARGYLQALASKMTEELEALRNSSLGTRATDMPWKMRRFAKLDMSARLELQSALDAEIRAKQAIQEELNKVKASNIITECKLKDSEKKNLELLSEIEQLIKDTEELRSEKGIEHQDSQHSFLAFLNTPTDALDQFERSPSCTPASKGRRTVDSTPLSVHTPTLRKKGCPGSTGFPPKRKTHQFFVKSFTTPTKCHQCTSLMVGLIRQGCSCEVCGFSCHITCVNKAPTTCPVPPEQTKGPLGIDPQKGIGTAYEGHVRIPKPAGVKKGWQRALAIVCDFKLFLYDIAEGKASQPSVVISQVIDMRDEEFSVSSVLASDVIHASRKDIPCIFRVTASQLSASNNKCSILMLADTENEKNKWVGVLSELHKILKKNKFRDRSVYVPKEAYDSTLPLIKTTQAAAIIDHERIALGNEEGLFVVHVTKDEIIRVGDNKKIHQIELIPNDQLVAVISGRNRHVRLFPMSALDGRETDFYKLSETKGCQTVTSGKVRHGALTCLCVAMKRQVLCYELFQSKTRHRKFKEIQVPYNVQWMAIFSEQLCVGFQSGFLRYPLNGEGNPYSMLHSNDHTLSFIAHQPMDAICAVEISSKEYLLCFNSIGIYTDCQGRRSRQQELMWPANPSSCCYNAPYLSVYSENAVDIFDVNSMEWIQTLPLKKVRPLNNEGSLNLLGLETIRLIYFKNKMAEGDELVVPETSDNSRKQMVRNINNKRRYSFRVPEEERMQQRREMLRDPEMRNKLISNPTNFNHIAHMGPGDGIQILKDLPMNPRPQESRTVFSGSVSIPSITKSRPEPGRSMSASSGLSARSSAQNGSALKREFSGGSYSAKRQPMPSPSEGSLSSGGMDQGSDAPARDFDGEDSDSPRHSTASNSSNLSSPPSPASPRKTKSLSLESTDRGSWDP

[13] = organism: Homo sapiens; test: Inhibition of human TAO1 at 500 nM by HotSpot assay relative to control
[14] = biological target: CDK6/cyclin D1 (Homo sapiens) (UniProt P24385+Q00534); test: Inhibition of human CDK6/cyclin D1 at 500 nM by HotSpot assay relative to control; assay type: protein-complex assay
[15] = biological target: Fibroblast growth factor receptor 2 (Homo sapiens) (UniProt P21802); test: Inhibition of human FGFR2 at 18.6 nM by HotSpot assay relative to control
[16] = biological target: Maternal embryonic leucine zipper kinase (Homo sapiens) (UniProt Q14680); test: Inhibition of human MELK at 1.82 nM by HotSpot assay relative to control

| SMILES | inhibition [1] [%] | inhibition [2] [%] | inhibition [3] [%] | inhibition [4] [%] | inhibition [5] [%] | inhibition [6] [%] | inhibition [7] [%] | inhibition [8] [%] | inhibition [9] [%] | inhibition [10] [%] | inhibition [11] [%] | inhibition [12] [%] | inhibition [13] [%] | inhibition [14] [%] | inhibition [15] [%] | inhibition [16] [%] |
| --- | --- | --- | --- | --- | --- | --- | --- | --- | --- | --- | --- | --- | --- | --- | --- | --- |
| Oc1n[nH]c2nnc(-c3c(-c4ccccc4)nn4ccccc34)cc12 | -0.83 | 11.6 | -3.4 | 1.01 | 5.7 | 2.29 | 5.77 | -0.72 | 1.04 | -1.44 | -0.68 | 6.74 | 1.69 | -3.16 |  |  |
| C[C@]1(O)C[C@@H](c2nc(-c3ccc4ccc(-c5ccccc5)nc4c3)c3c(N)nccn32)C1 |  |  |  |  |  |  |  |  |  |  |  |  |  |  | -3.25 |  |
| C[C@@]1(C(=O)Nc2ccc(F)nc2)CCCN1c1nc(Nc2cc(C3CC3)n[nH]2)c2cccn2n1 |  |  |  |  |  |  |  |  |  |  |  |  |  |  |  | 1.63 |
| Nc1n[nH]c2nnc(-c3c(-c4ccccc4)nn4ccccc34)cc12 | -2.21 | 2.91 | -1.72 | 0.69 | 9.86 | 68.8 | 10 | 7.12 | 5.1 | 0.88 | 5.12 | 10.3 | -1.14 | -0.33 |  |  |
